Assay results as given in patent US7087634B2, “Cyclic AMP-specific phosphodiesterase inhibitors” (ICOS Corporation, priority 1999, dated 2006).

Tests used:
serum TNFα = experiment: Combined mouse endotoxin-stimulated TNFα release assay (serum TNFα); type: in vivo; details: female Balb/c mice, i.p., LPS model
Method: (§1) The purpose of this study was to determine the efficacy of PDE4 inhibitors in vivo in an LPS mouse model together with a determination with respect to central nervous system (CNS) side-effects manifested by a decrease in spontaneous mobility.
(§2) The test animals were female Balb/c mice, having an average weight of about 20 g. The PDE4 inhibitors, formulated in 30% Cremophor® EL, were administered via intraperitoneal (i.p.) injections at doses of 0.1, 1.0, 10.0, and 100 mg/kg. Individual dose volumes (about 150 μL) were adjusted based on the body weights measured. One hour later, 5 mg/kg LPS in a final volume of 200 μL was injected via the tail vein to each animal. Ninety minutes following the LPS treatment, the animals were bled and serum samples were collected before being stored at −70° C. until assayed.
For efficacy determination, the serum samples were diluted two-fold and TNFα levels were determined using the CYTOSCREEN® Immunoassay Kit (Biosource International). The data were averaged between triplicate sample subjects for each of the tested compounds.

[1] = Combined mouse locomotor activity assay (sedative / CNS side-effect scoring); type: in vivo; design: key: Vehicle control animals were rated a single “+”; animals that were effectively immobilized and stretched out on the bottom of the cage with little detectable movement were rated as “++++.”; details: female Balb/c mice, i.p., 10 mg/kg
Method: as §1, §2
For side-effect profiling, a subjective visual scoring system was utilized at 5 min and 20 min after administration of PDE4 inhibitors. […] In this instance, the subjects could be monitored continuously over pre-set intervals.
Movement of the X-Y plane, or rearing up on the hind legs, was quantified by counting the number of “light-beam” crosses per unit of time. […] The quantitative scoring correlated well with the subjective measurements described above.

[2] = system: TNFα release from human peripheral blood lymphocytes; experiment: Lipopolysaccharide-stimulated TNFα release from human peripheral blood lymphocytes; type: cell-based; details: preliminary experiments
Method: The compounds of structural formulae (I) and (II) were tested for an ability to reduce TNFα secretions in human peripheral blood lymphocytes. The ability of a compound to reduce TNFα secretion is related to the EC50 value for the compound (i.e., the effective concentration of the compound capable of inhibiting 50% of the total TNFα).
To assess the ability of a compound to reduce TNFα secretion in human peripheral blood lymphocytes (PBL), the following tests were performed.
Heparinized blood (approximately 30 mL) drawn from human volunteers was mixed 1:1 with Dulbecco's modified phosphate-buffered saline. This mixture was mixed 1:1 with HISTOPAQUE® and centrifuged at 1,500 rpm at room temperature without braking in the swinging bucket of a Beckman model TJ6 centrifuge. Erythrocytes were centrifuged to the bottom of the tubes, and serum remained at the surface of the tubes. A layer containing lymphocytes sedimented between the serum and HISTOPAQUE® layers, and was removed by aspiration to a fresh tube. The cells were quantified and adjusted to […] and a 100 μL aliquot is placed into the wells of a 96 well plate. Test compounds and RPMI media (Gibco/BRL Life Sciences) are added to each of the wells 15 minutes prior to addition of bacterial LPS ([…]). The mixture was allowed to incubate for 20 hours at 37° C. in a humidified chamber. The cells then were separated by centrifuging at 800 rpm for 5 minutes at room temperature. An aliquot of 180 μL of supernatant was transferred to a new plate for determination of TNFα concentration. TNFα protein in the cell supernatant fluids was measured using a commercially available enzyme-linked immunosorbent assay (ELISA) (CYTOSCREEN® Immunoassay Kit from Biosource International).
(§3) The cell-based assay provided the following results for various compounds of the present invention. The EC50. values (i.e., effective concentration of the compound capable of inhibiting 50% of the total TNFα) illustrate the ability of the present compounds to inhibit LPS-stimulated TNFα release from human PBL.
as §3, with “various pyrazole” for “various”, “EC50” for “EC50.”, “concentrations” for “concentration”, “peripheral blood lymphocytes.” for “PBL.”

recombinant human PDE4 = details: background, reported value; read-out: reported IC50 with respect to recombinant human PDE4; cited from earlier work

| Compound | % TNFQ Inhibition (serum TNFα; 1 mg/kg) [%] | % TNFQ Inhibition (serum TNFα; 10 mg/kg) [%] | % TNFQ Inhibition (serum TNFα; 100 mg/kg) [%] | Sedative Effect [1] | LPS-induced TNFα secretion from human lymphocytes [2] | IC50 (recombinant human PDE4) [nM] |
| --- | --- | --- | --- | --- | --- | --- |
| COC(=O)N1C[C@@H](c2ccc(OC)c(OC3CCCC3)c2)[C@](C)(C(C)=O)C1 (relative stereo) [Comparative Example, trans-3-(3-cyclopentoxy-4-methoxyphenyl)-1-methoxycarbonyl-4-methyi-4-(methylcarbonyi)pyrrolidine] | 43 | 100 | 100 | + | – | – |
| COc1ccc(C2CNC(=O)C2)cc1OC1CCCC1 (stereo not drawn) [Rolipram, reference compound] | – | – | – | – | inhibit LPS-induced TNFα secretion from human lymphocytes in a dose-dependent fashion | ~200 |
